Measured values published in publication PMC9329436, “Optimization of the 4-anilinoquin(az)oline scaffold as epidermal growth factor receptor (EGFR) inhibitors for chordoma utilizing a toxicology profiling assay platform” (Scientific Reports, 2022).

Test system: U-CH1 chordoma cell line
Test: Cell viability assay (alamarBlue, 72 h), U-CH1
Format: cell-based, human
Conditions: n = 4, 72 h
Method in brief: (§1)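 Compound added in quadruplicate 24 h after plating; cultures maintained in 4:1 IMDM:RPMI, 10% FBS, gel-coated flasks.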

Compound	IC50
C#Cc1cccc(Nc2ccnc3ccc(I)cc23)c1F [Compound 35]	8.9 µM
C#Cc1ccc(F)c(Nc2ncnc3cc(I)ccc23)c1 [Compound 38]	15 µM
C#Cc1cccc(Nc2c(C#N)cnc3cc(I)ccc23)c1 [Compound 32]	> 100 µM
C#Cc1cccc(Nc2ncnc3cc(C#N)ccc23)c1 [Compound 17]	65 µM

Test system: U-CH2 chordoma cell line
Test: Cell viability assay (alamarBlue, 72 h), U-CH2
Format: cell-based, human
Conditions: n = 4, 72 h
Method in brief: as §1

Compound	IC50
C#Cc1cccc(Nc2ccnc3ccc(I)cc23)c1F [Compound 35]	> 100 µM
C#Cc1ccc(F)c(Nc2ncnc3cc(I)ccc23)c1 [Compound 38]	> 100 µM
C#Cc1cccc(Nc2c(C#N)cnc3cc(I)ccc23)c1 [Compound 32]	> 100 µM
C#Cc1cccc(Nc2ncnc3cc(C#N)ccc23)c1 [Compound 17]	> 100 µM

Test system: CH22 patient-derived chordoma cell line
Test: Cell viability assay (alamarBlue, 72 h), CH22
Format: cell-based, human
Conditions: n = 4, 72 h
Experimental: (§2) Chordoma cell lines were cultured as described previously[10],[12],[33],[34]. Briefly, U-CH1 and U-CH2 cell lines were cultured in 4:1 IMDM:RPMI medium supplemented with 10% fetal bovine serum (FBS) and 1% penicillin/streptomycin in gel-coated flasks. […] CH22, UM-Chor1, U-CH12, and U-CH7 cell lines were cultured in RPMI medium supplemented with 10% FBS and 1% penicillin/streptomycin. The cell lines all undergo regular mycoplasma screening.
(§3) Cells were seeded in 384 well plates and were treated with test compound in quadruplicate 24 h after plating. Cell viability was assessed at 72 h using alamarBlue (ThermoFisher, USA). […] IC50 values were determined by four-parameter nonlinear regression analyses using GraphPad Prism™ version 8 software (San Diego, CA).

Compound	IC50
C#Cc1cccc(Nc2ccnc3ccc(I)cc23)c1F [Compound 35]	> 100 µM
C#Cc1ccc(F)c(Nc2ncnc3cc(I)ccc23)c1 [Compound 38]	> 100 µM
C#Cc1cccc(Nc2c(C#N)cnc3cc(I)ccc23)c1 [Compound 32]	> 100 µM
C#Cc1cccc(Nc2ncnc3cc(C#N)ccc23)c1 [Compound 17]	> 100 µM

Test system: UM-Chor1 patient-derived chordoma cell line
Test: Cell viability assay (alamarBlue, 72 h), UM-Chor1
Format: cell-based, human
Conditions: n = 4, 72 h
Experimental: as §2, §3

Compound	IC50
C#Cc1cccc(Nc2ccnc3ccc(I)cc23)c1F [Compound 35]	> 100 µM
C#Cc1ccc(F)c(Nc2ncnc3cc(I)ccc23)c1 [Compound 38]	> 100 µM
C#Cc1cccc(Nc2c(C#N)cnc3cc(I)ccc23)c1 [Compound 32]	> 100 µM
C#Cc1cccc(Nc2ncnc3cc(C#N)ccc23)c1 [Compound 17]	> 100 µM

Test system: U-CH12 patient-derived chordoma cell line
Test: Cell viability assay (alamarBlue, 72 h), U-CH12
Format: cell-based, human
Conditions: n = 4, 72 h
Experimental: as §2, §3

Compound	IC50
C#Cc1cccc(Nc2ccnc3ccc(I)cc23)c1F [Compound 35]	> 100 µM
C#Cc1ccc(F)c(Nc2ncnc3cc(I)ccc23)c1 [Compound 38]	> 100 µM
C#Cc1cccc(Nc2c(C#N)cnc3cc(I)ccc23)c1 [Compound 32]	> 100 µM
C#Cc1cccc(Nc2ncnc3cc(C#N)ccc23)c1 [Compound 17]	> 100 µM

Test system: U-CH7 patient-derived chordoma cell line
Test: Cell viability assay (alamarBlue, 72 h), U-CH7
Format: cell-based, human
Conditions: n = 4, 72 h
Experimental: as §2, §3

Compound	IC50
C#Cc1cccc(Nc2ccnc3ccc(I)cc23)c1F [Compound 35]	> 100 µM
C#Cc1ccc(F)c(Nc2ncnc3cc(I)ccc23)c1 [Compound 38]	> 100 µM
C#Cc1cccc(Nc2c(C#N)cnc3cc(I)ccc23)c1 [Compound 32]	> 100 µM
C#Cc1cccc(Nc2ncnc3cc(C#N)ccc23)c1 [Compound 17]	> 100 µM

Test system: WS1 human fibroblast cell line
Test: Cell viability assay, WS1 toxicity control
Format: cell-based
Conditions: n = 4, nonspecific toxicity control
Experimental: as §3

Compound	IC50
C#Cc1cccc(Nc2ccnc3ccc(I)cc23)c1F [Compound 35]	85 µM
C#Cc1ccc(F)c(Nc2ncnc3cc(I)ccc23)c1 [Compound 38]	> 100 µM
C#Cc1cccc(Nc2c(C#N)cnc3cc(I)ccc23)c1 [Compound 32]	> 100 µM
C#Cc1cccc(Nc2ncnc3cc(C#N)ccc23)c1 [Compound 17]	> 100 µM

Test system: HL60 cells
Test: AsedaSciences SYSTEMETRIC Cell Health Screen (flow cytometry toxicity profiling)
Conditions: HL60, 4 h, 5 nM–100 µM, probability 0–1, n = 2
Method in brief: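 Risk scores derive from a logistic-regression ML classifier comparing flow-cytometric stress phenotypes with those of 300 reference compounds of known high or low human risk. Phenotypes: light scatter plus fluorescent physiological dyes, twelve parameters, no gating. Compounds tested 5 nM–100 µM (3× steps, duplicate) on HL60 cells, 4 h, 37 °C.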

Compound	CC: Cell Cycle score	CM: Cell morphology score	CMI: Cell membrane integrity score	GSH: Glutathione score	MMP: Mitochondrial membrane depolarization score	NMI1: Nuclear membrane integrity 1 score	NMI2: Nuclear membrane integrity 2 score	ROS: Reactive superoxide species score
C#Cc1cccc(Nc2ccnc3ccc(I)cc23)c1F [Compound 35]	0.12	0.0052	0.78	0.16	0.47	0.62	0.62	0.46
C#Cc1ccc(F)c(Nc2ncnc3cc(I)ccc23)c1 [Compound 38]	0.98	1.00	1.00	1.00	0.96	0.99	1.00	1.00
C#Cc1cccc(Nc2c(C#N)cnc3cc(I)ccc23)c1 [Compound 32]	0.95	1.00	1.00	0.98	0.99	0.95	0.94	0.99
C#Cc1cccc(Nc2ncnc3cc(C#N)ccc23)c1 [Compound 17]	0.25	0.43	0.052	0.04	0.10	0.37	0.10	0.41

Same assay, conditions: HL60, 4 h, 5 nM–100 µM, probability (0–1) of high-risk class, n = 2

Compound	CHI: Cell Health Index
C#Cc1cccc(Nc2ccnc3ccc(I)cc23)c1F [Compound 35]	0.37
C#Cc1ccc(F)c(Nc2ncnc3cc(I)ccc23)c1 [Compound 38]	0.88
C#Cc1cccc(Nc2c(C#N)cnc3cc(I)ccc23)c1 [Compound 32]	0.81
C#Cc1cccc(Nc2ncnc3cc(C#N)ccc23)c1 [Compound 17]	0.45

Same assay, conditions: SYSTEMETRIC Cell Health Screen; assay n=2

Compound	Cell Health Toxcity Profile CC (DyeCycle Violet)	Cell Health Toxcity Profile CM (Cell morphology)	Cell Health Toxcity Profile CMI (Cell membrane integrity)	Cell Health Toxcity Profile GSH (Glutathione)	Cell Health Toxcity Profile MMP (Mitochondrial membrane depolarization)	Cell Health Toxcity Profile NMI1 (Nuclear membrane integrity 1)	Cell Health Toxcity Profile NMI2 (Nuclear membrane integrity 2)	Cell Health Toxcity Profile ROS (Reactive superoxide species)
C#Cc1cccc(Nc2c(C#N)cnc3cc(I)ccc23)c1 [Compound 32]	0.95	1.00	1.00	0.98	0.99	0.95	0.94	0.99

Same assay, conditions: SYSTEMETRIC Cell Health Screen; classifier output; assay n=2

Compound	Cell Health Toxcity Profile CHI
C#Cc1cccc(Nc2c(C#N)cnc3cc(I)ccc23)c1 [Compound 32]	0.81

Biological target: EGFR (Homo sapiens, UniProt P00533)
Sequence (P00533 25-1210): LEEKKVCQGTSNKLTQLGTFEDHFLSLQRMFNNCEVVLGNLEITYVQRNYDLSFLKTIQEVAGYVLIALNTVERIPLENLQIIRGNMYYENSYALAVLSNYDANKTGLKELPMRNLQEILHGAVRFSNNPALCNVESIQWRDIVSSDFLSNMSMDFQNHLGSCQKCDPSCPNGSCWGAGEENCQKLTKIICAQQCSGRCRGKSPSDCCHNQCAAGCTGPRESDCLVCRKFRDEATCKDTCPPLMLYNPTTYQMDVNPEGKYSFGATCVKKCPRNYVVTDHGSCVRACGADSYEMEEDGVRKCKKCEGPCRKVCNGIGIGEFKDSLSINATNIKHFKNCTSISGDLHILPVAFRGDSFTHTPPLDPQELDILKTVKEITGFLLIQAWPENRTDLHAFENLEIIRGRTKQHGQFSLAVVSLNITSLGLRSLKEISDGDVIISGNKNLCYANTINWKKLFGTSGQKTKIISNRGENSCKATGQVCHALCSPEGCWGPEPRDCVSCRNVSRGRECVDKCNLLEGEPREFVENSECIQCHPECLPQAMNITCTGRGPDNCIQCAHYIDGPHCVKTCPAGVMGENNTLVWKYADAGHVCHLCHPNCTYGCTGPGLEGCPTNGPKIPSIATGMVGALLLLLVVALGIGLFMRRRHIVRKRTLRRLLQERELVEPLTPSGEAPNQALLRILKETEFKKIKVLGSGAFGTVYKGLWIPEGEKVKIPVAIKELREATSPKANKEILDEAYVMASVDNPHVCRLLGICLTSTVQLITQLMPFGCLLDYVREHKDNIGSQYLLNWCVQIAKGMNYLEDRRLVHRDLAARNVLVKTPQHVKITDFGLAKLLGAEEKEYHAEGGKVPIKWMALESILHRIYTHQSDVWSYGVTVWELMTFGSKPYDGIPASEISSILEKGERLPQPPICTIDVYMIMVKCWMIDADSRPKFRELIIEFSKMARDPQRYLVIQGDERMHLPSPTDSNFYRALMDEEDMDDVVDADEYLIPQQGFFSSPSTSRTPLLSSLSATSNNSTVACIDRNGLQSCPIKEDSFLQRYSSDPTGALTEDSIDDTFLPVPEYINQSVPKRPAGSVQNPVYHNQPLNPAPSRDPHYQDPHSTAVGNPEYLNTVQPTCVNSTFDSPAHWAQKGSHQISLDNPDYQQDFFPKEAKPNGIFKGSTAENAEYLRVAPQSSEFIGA
Test: ProQinase in-cell EGFR assay (EGFR phosphorylation in A431 cells)
Format: cell-based
Parameters: This cell line endogenously expresses a high level of EGFR; endogenous in cells; host or cells: A431
Conditions: ProQinase in-cell EGFR assay, A431 cells, n = 1
Source text: In addition, we ran an EGFR in-cell target engagement assay, measuring in-cell EGFR phosphorylation, using the human epidermoid carcinoma cell line A431. This cell line endogenously expresses a high level of EGFR, and stimulation of these cells with human epidermal growth factor (EGF) results in receptor tyrosine autophosphorylation.

Compound	IC50
C#Cc1cccc(Nc2ccnc3ccc(I)cc23)c1F [Compound 35]	1.9 µM
C#Cc1ccc(F)c(Nc2ncnc3cc(I)ccc23)c1 [Compound 38]	5.2 µM
C#Cc1cccc(Nc2c(C#N)cnc3cc(I)ccc23)c1 [Compound 32]	2.7 µM
C#Cc1cccc(Nc2ncnc3cc(C#N)ccc23)c1 [Compound 17]	> 20 µM
